Assay results: patent publication US20250223300A1, “MACROCYCLIC COMPOUND AND PHARMACEUTICAL COMPOSITION AND USE THEREOF” (BETTA PHARMACEUTICALS CO., LTD, priority 2022, published 2025)

Experiments:
[1] = Metabolic stability of liver microsomes, human; assay type: in vitro ADME; conditions: NADPH, 0-45 min, read-out: CLint(μL/min/mg protein) Human
Method: (§1) The liver microsomes of human, rat, mouse and dog were used to study the metabolic stability of the compounds. The specific experimental steps are as follows: • (1) Add 40 μL MgCl2 and 306 μL PBS to each well of a 96-well plate, and then add 4 μL compound, with a final DMSO concentration of ≤0.5%. Set up a blank well without compound; • (2) Add 10 μL of 20 mg/mL liver microsomes to each well, incubate at 37° C. for 10 min; • (3) Add 40 μL NADPH working solution to each well to start the reaction, and set up a control well without NADPH; • (4) At 0, 5, 15, and 45 min after the start of the reaction, 50 μL of sample was taken out, the termination solution was added, and the mixture was shaken for 5 min. • (5) The samples were then centrifuged at 3,220 g for 10 min, and 50 μL of the supernatant was removed and was added 200 μL water for dilution and analysis by LC-MS/MS.
(§2) The in vitro intrinsic clearance (in vitro CLint, in μL/min/mg) was calculated from the in vitro half-life t1/2 (minutes) using the following equation (mean of replicates):
(§3) In vitro clearance rate=0.693/in vitro half-life t1/2×[incubation volume (μL)/(protein amount (mg)]

[2] = system: A431 cell carrying EGFR WT; assay: Cell proliferation inhibitory activity assay, A431; assay type: cell-based; conditions: Homo sapiens, A-431; cell proliferation inhibition, 72 hours, luminescence
Method: (§4) Suspension cells Ba/F3 (EGFR. Dell9/T790M/C797S), Ba/F3 (EGFR L858R/T790M/C797S), Ba/F3 (EGFR Del19/C797S), and Ba/F3 (EGFR L858R/C797S) overexpressing different EGFR mutations were cultured in PRMI 1640 containing 10% FBS and 1% PS, and adherent cells A431 carrying EGFR WT were cultured in DMEM containing 10% FBS and 1% PS. The experimental steps for compound activity detection are as follows: • (1) Take adherent cells in the logarithmic growth phase, digest them with trypsin count them, and then inoculate them into a 96-well plate at a certain density. Incubate them overnight at 37° C. and 5% CO2 to allow them to adhere.
(§5) Y=minimum+([…])/(1+10^((Log IC50−X)*slope)); • X: logarithm of compound concentration; Y: cell survival inhibition rate.

[3] = Metabolic stability of liver microsomes, dog; assay type: in vitro ADME; conditions: NADPH, 0-45 min, read-out: CLint(μL/min/mg protein) Dog
Method: as §1, §2, §3

Ba/F3 (EGFR Del19/C797S) = Ba/F3 (EGFR Del19/C797S) (Homo sapiens, UniProt P00533, C797S, cells depend on it, form not given); assay: Cell proliferation inhibitory activity assay, Ba/F3 EGFR Del19/C797S; assay type: cell-based; conditions: cell proliferation inhibition, 72 hours, luminescence; read-out: Ba/F3 cells overexpressing different EGFR mutations IC50 (nM) Del19/C797S
Method: as §4, §5

[4] = molecular target: Ba/F3 (EGFR L858R/T790M/C797S) (Homo sapiens, UniProt P00533, T790M/C797S/L858R, cells depend on it); assay: Cell proliferation inhibitory activity assay, Ba/F3 EGFR L858R/T790M/C797S; assay type: cell-based; conditions: cell proliferation inhibition, 72 hours, luminescence; read-out: Ba/F3 cells overexpressing different EGFR mutations IC50 (nM) L858R/T790M/C797S
Method: as §4, §5

[5] = Metabolic stability of liver microsomes, rat; assay type: in vitro ADME; conditions: NADPH, 0-45 min, read-out: CLint(μL/min/mg protein) Rat
Method: as §1, §2, §3

Ba/F3 (EGFR L858R/C797S) = Ba/F3 (EGFR L858R/C797S) (Homo sapiens, UniProt P00533, C797S/L858R, cells depend on it); assay: Cell proliferation inhibitory activity assay, Ba/F3 EGFR L858R/C797S; assay type: cell-based; conditions: cell proliferation inhibition, 72 hours, luminescence; read-out: Ba/F3 cells overexpressing different EGFR mutations IC50 (nM) L858R/C797S
Method: as §4, §5

[6] = Metabolic stability of liver microsomes, mouse; assay type: in vitro ADME; conditions: NADPH, 0-45 min, read-out: CLint(μL/min/mg protein) Mouse
Method: as §1, §2, §3

[7] = molecular target: Ba/F3 cells overexpressing EGFR Del19/T790M/C797S (Homo sapiens, UniProt P00533, T790M/C797S, cells depend on it, form not given); assay: Cell proliferation inhibitory activity assay, Ba/F3 EGFR Del19/T790M/C797S; assay type: cell-based; conditions: cell proliferation inhibition, 72 hours, luminescence; read-out: Ba/F3 cells overexpressing different EGFR mutations IC50 (nM) Del19/T790M/C797S
Method: as §4, §5

Pharmacokinetics in rats = assay type: in vivo, rat; conditions: rat, po, male SD rats, 5 mg/kg orally by gavage, plasma; for Cmax: read-out: Cmax
Method: Male SD rats (200-300 g) were used for rat PK studies. Compounds were prepared and prepared immediately before use. Rats were administered intravenously or orally by gavage. Blood was collected from the rats through the orbital venous plexus, and 100 μL whole blood was collected into K2-EDTA tubes at each time point.
1 mg/kg was given intravenously, and whole blood was collected at 0.083, 0,25, $0.5, 1, 2, 4, 7, 24, 48, and 72 h after administration; 5 mg/kg were given orally by gavage, and whole blood was collected at 0.25, 0.5, 1, 2, 4, 7, 24, 48, and 72 h after administration in different batches, or the rats were killed at 4 and 24 h to obtain brains. The brain tissue samples were homogenized by adding 4 times the volume of buffer, and the whole blood and brain tissue samples were stored in a −80° C. refrigerator for later use. After the above whole blood and brain tissue samples were precipitated with acetonitrile for protein, the supernatant was taken and mixed with water in a ratio of 1:2, and 10 μL was taken for LC-MS/MS detection.

Pharmacokinetics in mice = assay type: in vivo, mouse; conditions: mouse, po, female BALB/c mice, 5 mg/kg orally by gavage, plasma; for Cmax: read-out: Cmax
Method: Mouse PK studies were performed using female BALB/c mice (20-30 g). Compounds were prepared and prepared immediately before use. Mice were administered intravenously or orally by gavage. Blood was collected from the mouse orbital venous plexus, and 100 μL of whole blood was transferred to a K2-EDTA tube at each time point.
1 mg/kg was given intravenously, and whole blood was collected at 0.083, 0.25, 0.5, 1, 2, 4, 6 and 24 h after administration; 5 mg/kg were given orally by gavage, and whole blood was collected at 0.25, 0.5, 1, 2, 4, 6, 24 h after administration in different batches, or the mice were killed at 2, 4 and 6 h to obtain brains. Whole blood samples were centrifuged and plasma was separated; brain tissue samples were homogenized by adding 4 times the volume of buffer, and the plasma and brain tissue samples were stored in a −80° C. refrigerator for later use. After the above plasma and brain tissue samples were precipitated with acetonitrile for protein, the supernatant was taken and mixed with water in a 1:1 ratio, and 10 μL was taken for LC-MS/MS detection.

Sequence of Ba/F3 cells overexpressing EGFR Del19/T790M/C797S (P00533 with tags, fused parts or gaps DEL746-750/T790M/C797S, form open): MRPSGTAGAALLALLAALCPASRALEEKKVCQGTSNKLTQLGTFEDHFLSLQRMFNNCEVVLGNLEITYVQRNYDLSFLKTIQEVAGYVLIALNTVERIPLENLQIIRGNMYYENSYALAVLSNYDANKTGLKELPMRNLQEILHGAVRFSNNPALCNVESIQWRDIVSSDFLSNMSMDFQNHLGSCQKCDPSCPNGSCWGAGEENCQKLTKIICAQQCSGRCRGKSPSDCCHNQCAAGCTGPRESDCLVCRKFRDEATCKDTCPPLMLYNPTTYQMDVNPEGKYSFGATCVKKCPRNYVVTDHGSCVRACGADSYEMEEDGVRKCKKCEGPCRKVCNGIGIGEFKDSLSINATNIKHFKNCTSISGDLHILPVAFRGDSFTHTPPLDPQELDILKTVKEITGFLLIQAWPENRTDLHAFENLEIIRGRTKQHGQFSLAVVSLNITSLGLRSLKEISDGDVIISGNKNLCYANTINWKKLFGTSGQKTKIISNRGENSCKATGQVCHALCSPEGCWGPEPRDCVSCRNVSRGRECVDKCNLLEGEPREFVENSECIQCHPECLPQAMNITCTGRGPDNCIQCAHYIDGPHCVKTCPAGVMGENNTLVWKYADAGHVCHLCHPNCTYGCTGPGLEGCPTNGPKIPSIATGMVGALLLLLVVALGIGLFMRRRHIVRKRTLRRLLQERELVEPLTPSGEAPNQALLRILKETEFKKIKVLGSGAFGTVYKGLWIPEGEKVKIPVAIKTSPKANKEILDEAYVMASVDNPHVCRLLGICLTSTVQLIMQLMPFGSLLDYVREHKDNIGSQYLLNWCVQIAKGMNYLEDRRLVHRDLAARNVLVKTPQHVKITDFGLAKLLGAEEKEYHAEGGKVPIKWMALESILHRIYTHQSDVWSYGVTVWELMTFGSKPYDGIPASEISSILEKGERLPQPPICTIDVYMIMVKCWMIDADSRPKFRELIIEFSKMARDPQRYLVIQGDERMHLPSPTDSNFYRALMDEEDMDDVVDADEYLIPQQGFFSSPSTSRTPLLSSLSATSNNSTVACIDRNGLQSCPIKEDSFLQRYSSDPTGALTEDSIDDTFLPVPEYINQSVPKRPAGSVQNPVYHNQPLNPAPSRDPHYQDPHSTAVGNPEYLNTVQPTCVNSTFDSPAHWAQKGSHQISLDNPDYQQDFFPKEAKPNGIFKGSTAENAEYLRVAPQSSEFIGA
Sequence of Ba/F3 (EGFR L858R/C797S) (P00533 whole entry C797S/L858R): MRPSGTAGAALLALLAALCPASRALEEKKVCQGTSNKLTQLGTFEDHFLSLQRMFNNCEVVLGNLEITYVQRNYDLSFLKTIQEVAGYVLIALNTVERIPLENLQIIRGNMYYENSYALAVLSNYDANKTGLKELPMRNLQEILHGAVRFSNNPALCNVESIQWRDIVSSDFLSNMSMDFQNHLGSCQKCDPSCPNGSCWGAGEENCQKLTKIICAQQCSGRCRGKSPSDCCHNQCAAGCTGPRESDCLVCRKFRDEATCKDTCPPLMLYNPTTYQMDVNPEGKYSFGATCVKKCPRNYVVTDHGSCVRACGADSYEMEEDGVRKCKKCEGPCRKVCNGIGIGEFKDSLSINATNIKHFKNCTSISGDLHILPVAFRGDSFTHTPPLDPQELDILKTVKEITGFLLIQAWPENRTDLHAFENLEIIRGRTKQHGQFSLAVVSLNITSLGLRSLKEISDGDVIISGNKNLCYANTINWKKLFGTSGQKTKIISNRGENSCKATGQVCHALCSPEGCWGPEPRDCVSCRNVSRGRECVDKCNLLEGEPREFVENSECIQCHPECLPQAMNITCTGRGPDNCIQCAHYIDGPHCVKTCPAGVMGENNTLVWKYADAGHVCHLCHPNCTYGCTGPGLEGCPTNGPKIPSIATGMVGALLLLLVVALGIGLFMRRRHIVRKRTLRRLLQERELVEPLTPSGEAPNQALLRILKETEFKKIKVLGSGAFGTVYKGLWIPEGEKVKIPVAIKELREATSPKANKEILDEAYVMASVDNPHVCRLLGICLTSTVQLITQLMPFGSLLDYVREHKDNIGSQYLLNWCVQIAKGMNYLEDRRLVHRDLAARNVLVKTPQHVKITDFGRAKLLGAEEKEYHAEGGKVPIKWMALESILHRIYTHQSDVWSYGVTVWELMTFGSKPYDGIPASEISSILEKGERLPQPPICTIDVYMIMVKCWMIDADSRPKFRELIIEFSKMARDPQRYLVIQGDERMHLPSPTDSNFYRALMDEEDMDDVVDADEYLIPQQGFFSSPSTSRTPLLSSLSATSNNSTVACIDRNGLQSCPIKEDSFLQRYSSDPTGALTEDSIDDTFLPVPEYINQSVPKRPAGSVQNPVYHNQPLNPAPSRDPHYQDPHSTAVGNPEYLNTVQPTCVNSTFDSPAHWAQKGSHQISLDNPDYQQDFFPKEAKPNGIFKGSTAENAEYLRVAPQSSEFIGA
Sequence of Ba/F3 (EGFR L858R/T790M/C797S) (P00533 whole entry T790M/C797S/L858R): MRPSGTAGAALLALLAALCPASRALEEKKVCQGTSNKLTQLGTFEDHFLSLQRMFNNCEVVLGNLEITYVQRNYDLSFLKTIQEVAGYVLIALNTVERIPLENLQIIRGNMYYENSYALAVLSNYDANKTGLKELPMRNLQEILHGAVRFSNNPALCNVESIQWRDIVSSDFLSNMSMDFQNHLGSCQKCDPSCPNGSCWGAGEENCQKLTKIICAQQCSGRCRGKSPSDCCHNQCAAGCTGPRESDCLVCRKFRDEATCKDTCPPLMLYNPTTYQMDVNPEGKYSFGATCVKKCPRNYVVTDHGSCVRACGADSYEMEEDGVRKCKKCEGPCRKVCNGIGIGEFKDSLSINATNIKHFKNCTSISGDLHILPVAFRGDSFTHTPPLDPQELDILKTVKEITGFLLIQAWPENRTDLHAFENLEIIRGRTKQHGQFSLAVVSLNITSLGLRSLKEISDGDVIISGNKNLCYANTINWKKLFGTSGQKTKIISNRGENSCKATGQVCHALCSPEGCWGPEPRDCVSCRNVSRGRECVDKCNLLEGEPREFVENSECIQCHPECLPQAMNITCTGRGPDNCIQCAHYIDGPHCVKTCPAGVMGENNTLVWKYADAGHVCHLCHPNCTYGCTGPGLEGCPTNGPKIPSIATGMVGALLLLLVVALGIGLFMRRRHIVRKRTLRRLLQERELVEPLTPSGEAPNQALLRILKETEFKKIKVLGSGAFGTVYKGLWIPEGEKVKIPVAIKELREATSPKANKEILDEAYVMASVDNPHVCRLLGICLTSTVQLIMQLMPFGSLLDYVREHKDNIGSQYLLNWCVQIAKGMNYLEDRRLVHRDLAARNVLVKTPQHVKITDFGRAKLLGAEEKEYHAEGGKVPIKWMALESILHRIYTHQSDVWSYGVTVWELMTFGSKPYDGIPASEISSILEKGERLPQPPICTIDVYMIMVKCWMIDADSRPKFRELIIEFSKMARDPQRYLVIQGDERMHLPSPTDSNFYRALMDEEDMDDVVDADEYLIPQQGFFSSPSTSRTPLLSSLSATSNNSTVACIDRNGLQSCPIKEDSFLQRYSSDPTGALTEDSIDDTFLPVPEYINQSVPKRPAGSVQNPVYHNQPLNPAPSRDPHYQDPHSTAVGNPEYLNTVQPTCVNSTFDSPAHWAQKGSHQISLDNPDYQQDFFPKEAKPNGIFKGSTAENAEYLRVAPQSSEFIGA
Sequence of Ba/F3 (EGFR Del19/C797S) (P00533 with tags, fused parts or gaps DEL746-750/C797S, form open): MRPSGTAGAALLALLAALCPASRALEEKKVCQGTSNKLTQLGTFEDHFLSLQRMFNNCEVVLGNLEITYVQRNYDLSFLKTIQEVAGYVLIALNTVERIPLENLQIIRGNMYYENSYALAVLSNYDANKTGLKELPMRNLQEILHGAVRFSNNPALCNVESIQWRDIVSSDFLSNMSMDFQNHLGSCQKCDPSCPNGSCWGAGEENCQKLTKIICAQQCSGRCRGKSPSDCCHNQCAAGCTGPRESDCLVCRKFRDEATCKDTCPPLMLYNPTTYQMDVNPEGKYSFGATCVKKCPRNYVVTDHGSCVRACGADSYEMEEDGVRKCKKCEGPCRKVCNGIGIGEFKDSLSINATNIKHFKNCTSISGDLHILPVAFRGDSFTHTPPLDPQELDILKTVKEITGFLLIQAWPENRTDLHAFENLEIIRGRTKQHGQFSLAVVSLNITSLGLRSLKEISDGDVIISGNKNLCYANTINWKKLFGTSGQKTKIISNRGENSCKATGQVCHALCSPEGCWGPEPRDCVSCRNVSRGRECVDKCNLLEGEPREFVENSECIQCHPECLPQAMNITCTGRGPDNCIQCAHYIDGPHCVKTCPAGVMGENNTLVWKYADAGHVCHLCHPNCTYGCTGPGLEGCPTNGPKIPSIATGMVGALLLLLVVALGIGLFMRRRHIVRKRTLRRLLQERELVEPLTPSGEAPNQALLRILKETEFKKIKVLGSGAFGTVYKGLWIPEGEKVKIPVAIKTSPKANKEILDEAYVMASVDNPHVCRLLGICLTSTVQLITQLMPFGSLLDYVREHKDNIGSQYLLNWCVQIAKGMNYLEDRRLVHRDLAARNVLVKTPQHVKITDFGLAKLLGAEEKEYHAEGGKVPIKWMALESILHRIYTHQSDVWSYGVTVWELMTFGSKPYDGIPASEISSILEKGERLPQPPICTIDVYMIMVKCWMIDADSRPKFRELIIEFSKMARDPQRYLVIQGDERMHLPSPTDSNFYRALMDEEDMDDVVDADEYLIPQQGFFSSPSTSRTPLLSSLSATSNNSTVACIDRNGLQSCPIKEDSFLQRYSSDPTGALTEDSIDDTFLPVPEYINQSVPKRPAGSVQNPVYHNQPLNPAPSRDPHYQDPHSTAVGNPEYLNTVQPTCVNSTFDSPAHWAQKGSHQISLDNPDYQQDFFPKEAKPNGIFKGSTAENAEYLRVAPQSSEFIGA

| microsomal CLint [1] [µL/min/mg] | IC50 [2] [nM] | microsomal CLint [3] [µL/min/mg] | GI50 (Ba/F3 (EGFR Del19/C797S)) [nM] | GI50 [4] [nM] | microsomal CLint [5] [µL/min/mg] | GI50 (Ba/F3 (EGFR L858R/C797S)) [nM] | microsomal CLint [6] [µL/min/mg] | GI50 [7] [nM] | AUC(0-t) (Pharmacokinetics in rats) [ng·h/mL] | half-life (Pharmacokinetics in rats) [h] | Cmax (Pharmacokinetics in rats) [ng/mL] | AUC(0-t) (Pharmacokinetics in mice) [ng·h/mL] | half-life (Pharmacokinetics in mice) [h] | Cmax (Pharmacokinetics in mice) [ng/mL] | Structure (SMILES) |
| --- | --- | --- | --- | --- | --- | --- | --- | --- | --- | --- | --- | --- | --- | --- | --- |
| 7.2 | 1640 | 8.9 | 0.08 | 0.62 | 14.2 | 0.23 | 32.7 | 0.24 |  |  |  |  |  |  | Cc1cc2cc(n1)-c1cnccc1OCCCCCn1c(nc3ccc(N4CCC5(CCN(C)CC5)CC4)cc31)NC2=O [Example 1, 2^6-methyl-5^6-(9-methyl-3,9-diazaspiro[5.5]undecan-3-yl)-5^1H-11-oxa-4-aza-5(2,1)-benzo[d]imidazola-1(3,4),2(2,4)-dipyridinacycloundecaphan-3-one] |
| 6.6 | 759 | 7.9 | 0.07 | 0.71 | 8 | 0.44 | 23.1 | 0.49 |  |  |  |  |  |  | Cc1cc2cc(n1)-c1cnccc1OCCC[C@@H](C)Cn1c(nc3ccc(N4CCC5(CCN(C)CC5)CC4)cc31)NC2=O [Example 3, (R)-2^6,7-dimethyl-5^6-(9-methyl-3,9-diazaspiro[5.5]undecan-3-yl)-5^1H-11-oxa-4-aza-5(2,1)-benzo[d]imidazola-1(3,4)2(2,4)-dipyridinacycloundecaphan-3-one] |
| 26.3 | 274 | 24 | 0.2 | 1.1 | 5.6 | 0.8 |  | 0.2 | 2590 | 27.5 | 165 | 2090 | 5.28 | 181 | Cc1cc2cc(n1)-c1cnccc1OCCC[C@@H](C)Cn1c(nc3ccc(N4CCC5(CC4)CCN(C4COC4)CC5)cc31)NC2=O [Example 4] |
| 9.1 | 331 | 2.2 | 0.19 | 0.98 | 8.9 | 0.88 | 22.8 | 0.61 |  |  |  |  |  |  | Cc1cc2cc(n1)-c1cnccc1OCCC[C@@H](C)Cn1c(nc3cc(F)c(N4CCC5(CCN(C)CC5)CC4)cc31)NC2=O [Example 5, (R)-5^5-fluoro-2^6,7-dimethyl-5^6-(9-methyl-3,9-diazaspiro[5.5]undecan-3-yl)-5^1H-11-oxa-4-aza-5(2,1)-benzo[d]imidazola-1(3,4),2(2,4)-dipyridinacycloundecaphan-3-one] |
| 41.5 | 403 | 20.6 | 0.38 | 4.1 | 2.9 | 2.1 |  | 2.1 | 1700 | 17.2 | 106 | 1140 | 21.5 | 92.4 | Cc1cc2cc(n1)-c1cnccc1OCCC[C@@H](C)Cn1c(nc3cc(F)c(N4CCC5(CC4)CCN(C4COC4)CC5)cc31)NC2=O [Example 6, (R)-5^5-fluoro-2^6,7-dimethyl-5^6-(9-(oxetan-3-yl)-3,9-diazaspiro[5.5]undecan-3-yl)-5^1H-11-oxa-4-aza-3(2.1)-benzo[d]imidazola-1(3,4),2(2,4)-dipyridinacycloundecaphan-3-one] |
| 24.9 | 1000 | 10.4 | 0.48 | 7.6 |  | 4.4 | 5.5 | 4.9 |  |  |  |  |  |  | Cc1cc2cc(n1)-c1cnccc1OCCC[C@@H](C)Cn1c(nc3cc(C)c(N4CCC5(CC4)CCN(C4COC4)CC5)cc31)NC2=O [Example 12, (R)-2^6,5^5,7-trimethyl-5^6-(9-(oxetan-3-yl)-3,9-diazaspiro[5.5]undecan-3-yl)-5^1H-11-oxa-4-aza-5(2,1)-benzo[d]imidazola-1(3,4),2(2,4) -dipyridinacycloundecaphan-3-on] |
| 4 | > 3330 | 4.2 | 0.2 | 2 | 7 | 1.3 | 6.2 | 0.96 |  |  |  |  |  |  | Cc1cc2cc(n1)-c1cnccc1OCCCCCn1c(nc3cc(C)c(N4CCC5(CCN(C)CC5)CC4)cc31)NC2=O [Example 13, 2^6,5^5-dimethyl-5^6-(9-methyl-3,9-diazaspiro[5.5]undecan-3-yl)-5^1H-11-oxa-4-aza-5(2,1)-benzo[d]imidazola-1(3,4),2(2,4)-dipyridinacycloundecaphan-3-one] |
| 4.3 | > 3330 | 22 | 3.3 | 12 | 12.2 | 21 | 69.5 | 5.9 |  |  |  |  |  |  | Cc1cc2cc(n1)-c1cnccc1OCCCCCn1c(nc3ccc(N4CCC5(CCN(CC(C)(C)F)CC5)CC4)cc31)NC2=O [Example 78, 5^6-(9-(2-fluoro-2-methylpropyl)-3,9-diazaspiro [5.5]undecan-3-yl)-2^6-methyl-5^1H-11-oxa-4-aza-5(2,1)-benzo[d] imidazola-1(3,4),2(2,4)-dipyridinacyclo-undecaphan-3-one] |
